Measured values as given in ChEMBL document CHEMBL1145763, “Design, synthesis and photochemical properties of caged bile acids” (Bioorg Med Chem Lett, 2003).
≈ marks a conversion by molar mass, not a printed value.

Test: Solubility in 100 mM Tris pH(8.5)/ 30% PEG 6000/200 mM NaOAc
Assay type: physicochemical

| solubility [µM] | SMILES |
| --- | --- |
| 5000 (≈ 2640 µg/mL) | C[C@H](CCC(=O)O)[C@H]1CC[C@H]2[C@@H]3[C@H](O)CC4C[C@H](OCc5ccccc5[N+](=O)[O-])CC[C@]4(C)[C@H]3CC[C@]12C (some centres undefined) |
| 2000 (≈ 1090 µg/mL) | C[C@H](CCC(=O)O)[C@H]1CC[C@H]2[C@@H]3[C@H](O)CC4C[C@H](OCc5ccccc5[N+](=O)[O-])CC[C@]4(C)[C@H]3C[C@H](O)[C@]12C (some centres undefined) |
| 4000 (≈ 2340 µg/mL) | C[C@H](CCC(=O)NCC(=O)O)[C@H]1CC[C@H]2[C@@H]3[C@H](O)CC4C[C@H](OCc5ccccc5[N+](=O)[O-])CC[C@]4(C)[C@H]3CC[C@]12C (some centres undefined) |
| 1000 (≈ 604 µg/mL) | COc1cc(CO[C@@H]2CC[C@@]3(C)C(C2)C[C@@H](O)[C@H]2[C@@H]4CC[C@H]([C@H](C)CCC(=O)O)[C@@]4(C)[C@@H](O)C[C@@H]23)c([N+](=O)[O-])cc1OC (some centres undefined) |
